Source: US8513303B2, “Antimicrobial agent” (De Montfort University, priority 2007, dated 2013)

System: Bacillus subtilis subsp. spizizenii ATCC 6633 spore
Test: Testing for antimicrobial activity against spores (sporicidal suspension test)
Type: cell-based
Description: Spore suspensions were prepared based on the general principles of European quantitative suspension tests for evaluation of sporicidal activity (BS EN14347:2005: chemical disinfectants and antiseptics, basic sporicidal activity, test method and requirements (phase 1, step 1), London: British Standards Institute). Tryptone soya broth was seeded with spores from a previous batch and incubated at 37° C. to obtain an exponential growth phase culture. 10 mL of this culture was transferred into a Roux flask containing manganese-sulfate sporulation agar so that the inoculum came into contact with all of the surface of the agar. The Roux flasks were incubated at 37° C. for 2 days and for 21 days at 30° C., cultures were recovered, checked for sporulation and stored in water at 5° C. Sporicidal activity was then assessed using the method outlined previously (but with half the volume/weight of hydrogen peroxide, water, organism and catalyst) using 5 to 7.5% w/v hydrogen peroxide (see testing antimicrobial activity section). After neutralisation, a 1 mL sample was added to 12 to 15 mL of melted tryptone soya agar cooled to 45° C. Petri dishes were incubated for a minimum of 4 days and a maximum of 7 days at 37° C. and the log10 reduction in bacterial spore numbers calculated.

OO [Example H2O2, hydrogen peroxide]
Mean log10 reduction in CFU/ml (5% w/v H2O2, no air, 10 min): 1.02 (0.03) log10 CFU/ml
Mean log10 reduction in CFU/ml (5% w/v H2O2, no air, 30 min): 1.26 (0.12) log10 CFU/ml
Mean log10 reduction in CFU/ml (5% w/v H2O2, no air, 60 min): 1.90 (0.09) log10 CFU/ml
Mean log10 reduction in CFU/ml (5% w/v H2O2, no air, 120 min): 3.45 (0.27) log10 CFU/ml
Mean log10 reduction in CFU/ml (5% w/v H2O2, no air, 120 min, listed as hydrogen peroxide): 3.45 log10 CFU/ml
Mean log10 reduction in CFU/ml (7.5% w/v H2O2, no air, 10 min): 0.04 (0.11) log10 CFU/ml
Mean log10 reduction in CFU/ml (7.5% w/v H2O2, no air, 30 min): 0.19 (0.08) log10 CFU/ml
Mean log10 reduction in CFU/ml (7.5% w/v H2O2, no air, 60 min): 0.95 (0.01) log10 CFU/ml
Mean log10 reduction in CFU/ml (7.5% w/v H2O2, no air, 120 min): 4.22 (0.71) log10 CFU/ml
Mean log10 reduction in CFU/ml (7.5% w/v H2O2, no air, 120 min, listed as hydrogen peroxide): 4.22 log10 CFU/ml
